Experimental data: ChEMBL document CHEMBL5724914, “Linking interpersonal differences in gut microbiota composition and drug biotransformation activity” (2024)

Key:
[1] = human gut metagenome, 24 h, 2 µM
[2] = human gut metagenome, 24 h, 2 µM; remark: listed apart in the source
[3] = human gut metagenome, 24 h, 2 µM; remark: listed apart in the source
[4] = The drug is tested on Z-030 corresponding to mouse gut metagenome with ENA study accession number: PRJEB37062 and ENA sample accession number: ERS12561829 for biotransformation under anaerobic condition. The drug concentrations were measured over 9 timepoints collected between 0 and 24 hours of incubation by liquid-chromatography-coupled mass spectrometry (LC–MS); settings: 2 µM
[5] = The drug is tested on Z-008 corresponding to metagenome with ENA study accession number: PRJEB37062 and ENA sample accession number: ERS12561808 for biotransformation under anaerobic condition. The drug concentrations were measured over 9 timepoints collected between 0 and 24 hours of incubation by liquid-chromatography-coupled mass spectrometry (LC–MS); settings: 2 µM
[6] = The drug is tested on Z-020 corresponding to rabbit gut metagenome with ENA study accession number: PRJEB37062 and ENA sample accession number: ERS12561819 for biotransformation under anaerobic condition. The drug concentrations were measured over 9 timepoints collected between 0 and 24 hours of incubation by liquid-chromatography-coupled mass spectrometry (LC–MS); settings: 2 µM
[7] = human gut metagenome, 24 h, 2 µM; remark: listed apart in the source
[8] = human gut metagenome, 24 h, 2 µM; remark: listed apart in the source
[9] = human gut metagenome, 24 h, 2 µM; remark: listed apart in the source
[10] = human gut metagenome, 24 h, 2 µM; remark: listed apart in the source
[11] = The drug is tested on Z-012 corresponding to metagenome with ENA study accession number: PRJEB37062 and ENA sample accession number: ERS12561812 for biotransformation under anaerobic condition. The drug concentrations were measured over 9 timepoints collected between 0 and 24 hours of incubation by liquid-chromatography-coupled mass spectrometry (LC–MS); settings: 2 µM
[12] = The drug is tested on Z-022 corresponding to mouse gut metagenome with ENA study accession number: PRJEB37062 and ENA sample accession number: ERS12561821 for biotransformation under anaerobic condition. The drug concentrations were measured over 9 timepoints collected between 0 and 24 hours of incubation by liquid-chromatography-coupled mass spectrometry (LC–MS); settings: 2 µM
[13] = The drug is tested on WLS-077 corresponding to human gut metagenome with ENA study accession number: PRJEB37062 and ENA sample accession number: ERS12561750 for biotransformation under anaerobic condition. The drug concentrations were measured over 9 timepoints collected between 0 and 24 hours of incubation by liquid-chromatography-coupled mass spectrometry (LC–MS); settings: 2 µM
[14] = The drug is tested on WLS-027 corresponding to human gut metagenome with ENA study accession number: PRJEB37062 and ENA sample accession number: ERS12561744 for biotransformation under anaerobic condition. The drug concentrations were measured over 9 timepoints collected between 0 and 24 hours of incubation by liquid-chromatography-coupled mass spectrometry (LC–MS); settings: 2 µM
[15] = human gut metagenome, 24 h, 2 µM; remark: listed apart in the source
[16] = The drug is tested on Z-001 corresponding to mouse gut metagenome with ENA study accession number: PRJEB37062 and ENA sample accession number: ERS12561801 for biotransformation under anaerobic condition. The drug concentrations were measured over 9 timepoints collected between 0 and 24 hours of incubation by liquid-chromatography-coupled mass spectrometry (LC–MS); settings: 2 µM
[17] = The drug is tested on Z-027 corresponding to metagenome with ENA study accession number: PRJEB37062 and ENA sample accession number: ERS12561826 for biotransformation under anaerobic condition. The drug concentrations were measured over 9 timepoints collected between 0 and 24 hours of incubation by liquid-chromatography-coupled mass spectrometry (LC–MS); settings: 2 µM
[18] = The drug is tested on Z-005 corresponding to metagenome with ENA study accession number: PRJEB37062 and ENA sample accession number: ERS12561805 for biotransformation under anaerobic condition. The drug concentrations were measured over 9 timepoints collected between 0 and 24 hours of incubation by liquid-chromatography-coupled mass spectrometry (LC–MS); settings: 2 µM
[19] = human gut metagenome, 24 h, 2 µM; remark: listed apart in the source
[20] = human gut metagenome, 24 h, 2 µM; remark: listed apart in the source
Further: call rule not given here.

| SMILES | Bacterial Biotransformation [1] | Bacterial Biotransformation [2] | Bacterial Biotransformation [3] | Bacterial Biotransformation [4] | Bacterial Biotransformation [5] | Bacterial Biotransformation [6] | Bacterial Biotransformation [7] | Bacterial Biotransformation [8] | Bacterial Biotransformation [9] | Bacterial Biotransformation [10] | Bacterial Biotransformation [11] | Bacterial Biotransformation [12] | Bacterial Biotransformation [13] | Bacterial Biotransformation [14] | Bacterial Biotransformation [15] | Bacterial Biotransformation [16] | Bacterial Biotransformation [17] | Bacterial Biotransformation [18] | Bacterial Biotransformation [19] | Bacterial Biotransformation [20] |
| --- | --- | --- | --- | --- | --- | --- | --- | --- | --- | --- | --- | --- | --- | --- | --- | --- | --- | --- | --- | --- |
| CCCN(CCC)CCc1cccc2c1CC(=O)N2 [ROPINIROLE] | Compound NOT metabolized | Compound NOT metabolized | Compound NOT metabolized | Compound NOT metabolized | Compound NOT metabolized | Compound metabolized | Compound NOT metabolized | Compound NOT metabolized | Compound NOT metabolized | Compound metabolized | Compound metabolized | Compound NOT metabolized | Compound NOT metabolized | Compound NOT metabolized | Compound NOT metabolized | Compound NOT metabolized | Compound NOT metabolized | Compound NOT metabolized | Compound NOT metabolized | Compound NOT metabolized |
| COc1ccc(C(CN(C)C)C2(O)CCCCC2)cc1 (stereo not given) [VENLAFAXINE] | Compound NOT metabolized | Compound NOT metabolized | Compound NOT metabolized | Compound NOT metabolized | Compound NOT metabolized | Compound NOT metabolized | Compound NOT metabolized | Compound NOT metabolized | Compound NOT metabolized | Compound metabolized | Compound NOT metabolized | Compound NOT metabolized | Compound NOT metabolized | Compound NOT metabolized | Compound NOT metabolized | Compound metabolized | Compound NOT metabolized | Compound NOT metabolized | Compound NOT metabolized | Compound metabolized |
| O=C1CC2(CCCC2)CC(=O)N1CCCCN1CCN(c2ncccn2)CC1 [BUSPIRONE] | Compound NOT metabolized | Compound NOT metabolized | Compound NOT metabolized | Compound NOT metabolized | Compound NOT metabolized | Compound NOT metabolized | Compound NOT metabolized | Compound NOT metabolized | Compound NOT metabolized | Compound metabolized | Compound NOT metabolized | Compound NOT metabolized | Compound NOT metabolized | Compound NOT metabolized | Compound metabolized | Compound NOT metabolized | Compound NOT metabolized | Compound NOT metabolized | Compound metabolized | Compound metabolized |
| CC(C)(C)NCC(O)c1cc(Cl)c(N)c(Cl)c1 (stereo not given) [CLENBUTEROL] | Compound NOT metabolized | Compound NOT metabolized | Compound NOT metabolized | Compound NOT metabolized | Compound NOT metabolized | Compound NOT metabolized | Compound NOT metabolized | Compound NOT metabolized | Compound NOT metabolized | Compound NOT metabolized | Compound NOT metabolized | Compound NOT metabolized | Compound NOT metabolized | Compound NOT metabolized | Compound NOT metabolized | Compound NOT metabolized | Compound NOT metabolized | Compound NOT metabolized | Compound NOT metabolized | Compound NOT metabolized |
| Br.COc1ccc2c(c1)[C@]13CCCC[C@@H]1[C@H](C2)N(C)CC3.O [DEXTROMETHORPHAN HYDROBROMIDE] | Compound NOT metabolized | Compound metabolized | Compound metabolized | Compound NOT metabolized | Compound NOT metabolized | Compound metabolized | Compound metabolized | Compound NOT metabolized | Compound NOT metabolized | Compound metabolized | Compound NOT metabolized | Compound NOT metabolized | Compound metabolized | Compound metabolized | Compound metabolized | Compound NOT metabolized | Compound NOT metabolized | Compound NOT metabolized | Compound NOT metabolized | Compound metabolized |
| CC(C)(C)NC[C@H](O)COc1nsnc1N1CCOCC1.O=C(O)/C=C\C(=O)O [TIMOLOL MALEATE] | Compound NOT metabolized | Compound NOT metabolized | Compound NOT metabolized | Compound NOT metabolized | Compound NOT metabolized | Compound NOT metabolized | Compound NOT metabolized | Compound NOT metabolized | Compound NOT metabolized | Compound NOT metabolized | Compound NOT metabolized | Compound NOT metabolized | Compound NOT metabolized | Compound NOT metabolized | Compound NOT metabolized | Compound NOT metabolized | Compound NOT metabolized | Compound NOT metabolized | Compound NOT metabolized | Compound NOT metabolized |
